{"source": "paper PMC12057046", "about": "“Elucidation of short linear motif-based interactions of the MIT and rhodanese domains of the ubiquitin-specific protease 8” (Biology Direct, 2025)", "key": {"USP8 Rhod domain": {"biological_target": "T1, USP8 Rhod domain (Homo sapiens, UniProt P40818)", "T1 construct": "USP8 Rhod (174–317) (UniProt: P40818); GST (cleaved yes); made in house; host or cells: Escherichia coli BL21-Gold (DE3)", "T1 sequence (P40818 174-317)": "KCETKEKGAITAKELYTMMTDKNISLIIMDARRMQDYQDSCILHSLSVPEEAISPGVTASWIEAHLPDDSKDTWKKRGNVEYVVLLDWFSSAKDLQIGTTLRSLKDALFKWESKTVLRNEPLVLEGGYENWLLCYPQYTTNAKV", "assay": "Competitive fluorescence polarization (displacement of FITC-TET3_1705 − 1720)", "assay_type": "binding", "details": "FP displacement, 1.5 µM protein, 10 nM FITC-labeled peptide, 50 mM sodium phosphate pH 7.4, 1 mM DTT; mean ± SD, N = 3 technical triplicates (Fig. 3 legend)", "procedure": "We next evaluated the peptide binding of the Rhod domain by ProP-PD selections. […] (February 2025).\nThe peptides were obtained from GeneCust (France) with > 95% purity. Measurement of the direct binding with a constant concentration of FITC-labeled peptides was performed by increasing concentration of the protein. The KD value from the direct binding experiment was obtained by fitting against a quadratic equation (Eq. 4) where “pept” indicates the fixed probe peptide concentrations, X indicates the protein concentration, the constant A is the signal amplitude divided by probe peptide concentration, and B is the plateau value. Eq. 4: [drawing 9]\nDisplacement experiments were carried out by increasing concentration of the unlabeled peptides. The data were fitted with a sigmoidal dose-response equation. The results were analysed with GraphPad Prism version 9.2.0."}, "USP8 MIT domain [1]": {"system": "USP8 MIT domain", "details": "187-ELSQRLARLR-196; ref [17], [38]; cited from earlier work", "excerpt": "To further elucidate the peptide binding determinants of the interactions with USP8 MIT domain we performed a deep mutational scanning (DMS) analysis of two model peptides: one peptide from melanophilin (MLPH481 − 496: […]) which served as a representative of the MIM1-like motif and the EFCAB12 peptide (EFCAB12_1 − 16: […]), which shares some sequence similarity with the DBP116 − 131 peptide. We designed a library of peptides in which each position of the two parental peptides were mutated to all other amino acids (except cysteine) following a classic saturation mutag ..."}, "USP8 MIT domain [2]": {"system": "USP8 MIT domain", "assay": "SPOT array alanine scanning, USP8 MIT domain", "assay_type": "binding, human", "details": "cellulose-bound peptides, GST-tagged MIT 100 µM, 5% skim milk TBST, overnight 4 °C, anti-GST HRP chemiluminescence; normalized to wild type", "procedure": "SPOT array alanine scanning of peptides was designed, and cellulose-bound peptides were synthesized using Fluorenylmethyloxycarbonyl (Fmoc) solid phase synthesis with a MultiPep synthesizer (INTAVIS Peptide Services, Tübingen, Germany). The membranes of predicted peptides were purchased by JPT Peptide Technologies (Berlin, Germany). The membranes were incubated with blocking buffer containing 5% skim milk in TBST (50 mM Tris, 150 mM NaCl pH 7.5, 0.05% Tween-20) for two hours at room temperature. The blocked membranes were incubated with GST-tagged proteins (100 µM for MIT domain and 150 µM for the Rhodanese domain) in blocking buffer overnight at 4 °C. After rinsed with TBST the membranes were incubated with HRP-conjugated anti-GST antibody (Cytiva, RPN1236; 1:3000 dilution) in blocking buffer for 1 h at 4 °C and subsequently rinsed with TBST to remove any excess antibody. The ECL reagent (Clarity Max Western ECL substrate, 1705062, BioRad) was used for chemiluminescence read-out with the ChemiDoc Imaging system (BioRad). The images were analysed with Fiji (ImageJ2 version 2.9.0). SLiMSearch4 was used to design the peptide arrays with known interactors predicted to contain the motifs. The background signal intensity was subtracted, and the corrected signal intensities were normalized to the positive control and presented as percentage."}, "USP8 MIT domain [3]": {"system": "USP8 MIT domain", "assay": "SPOT array of predicted peptides from known interactors, USP8 MIT domain", "assay_type": "binding, human", "details": "for Percentage (%) normalized to highest intensity and corrected for background: SPOT array, GST-tagged MIT 100 µM, overnight 4 °C, chemiluminescence, highest intensity = DNAJB6; for Percentage (%): Supplementary Fig. 4B, normalized to the highest intensity and corrected for background", "excerpt": "To further assess the SLiM-based interactions of the USP8 MIT domain, we designed a peptide array tiling 24 potential binding sites in previously reported USP8 interactors. We used SLiMSearch to search for peptides that contain shorter or longer matches to the motif (Supplementary Table S4A). […] The DNAJB6_118 - 130 peptide was predicted as a binder based on a partial DFx{2,3}R motif. The DNAJB6-USP8 interaction is supported by previous GST-pulldown experiments and colocalization of the two proteins in male mouse germ cells, and the interaction is thought to be of importance to the protein quality control to yield functional spermatozoa. In the case of the CDH1_863 - 877 peptide it was predicted as USP8 MIT ligand based on the presence of an RFxxL motif. The previous support of the CDH1-USP8 interaction is based on proximity labelling mass spectrometry, and our results thus provide evidence for a binary interaction between the two proteins and define a binding site. To confirm that the motifs used to predict the interactions were of importance for binding we designed an alanine scanning peptide SPOT array analysis of the DNAJB6_118 - 130 and the CDH1_863 - 877 peptides. […] In summary, we find that the USP8 MIT domain binds to a MIM1-like motif that can be expressed by [[…]], as well as degenerate variants thereof. […] The membranes of predicted peptides were purchased by JPT Peptide Technologies (Berlin, Germany). The membranes were incubated with blocking buffer containing 5% skim milk in TBST (50 mM Tris, 150 mM NaCl pH 7.5, 0.05% Tween-20) for two hours at room temperature. The blocked membranes were incubated with GST-tagged proteins (100 μM for MIT domain and 150 μM for the Rhodanese domain) in blocking buffer overnight at 4 °C. After rinsed with TBST the membranes were incubated with HRP-conjugated anti-GST antibody (Cytiva, RPN1236; 1:3000 dilution) in blocking buffer for 1 h at 4 °C and subsequently rinsed with TBST to remove any excess antibody. The ECL reagent (Clarity Max Western ECL substrate, 1705062, BioRad) was used for chemiluminescence read-out with the ChemiDoc Imaging system (BioRad). The images were analysed with Fiji (ImageJ2 version 2.9.0). […] used to design the peptide arrays with known interactors predicted to contain the motifs. The background signal intensity was subtracted, and the corrected signal intensities were normalized to the positive control and presented as percentage."}, "USP8 MIT domain [4]": {"system": "USP8 MIT domain", "assay": "Proteomic peptide-phage display (ProP-PD) selection against USP8 MIT domain", "assay_type": "binding, human", "parameters": "Confidence: scale not given here", "summary_of_the_method": "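GST-tagged USP8 MIT domain, immobilized on plates, used as bait for four rounds of phage selection with a human disorderome peptide library, after pre-clearing on GST at 4 °C. Binding 2 h at 4 °C, at least three replicates. Enriched peptides identified by next-generation sequencing.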"}}, "data": [{"compound": "CSCC[C@H](NC(=O)CN)C(=O)N[C@@H](CCC(=O)O)C(=O)N[C@@H](CCCNC(=N)N)C(=O)N[C@H](C(=O)N[C@@H](CC(C)C)C(=O)NCC(=O)NCC(=O)N[C@@H](CC(C)C)C(=O)N[C@@H](CO)C(=O)N[C@@H](CO)C(=O)N1CCC[C@H]1C(=O)N[C@@H](CC(C)C)C(=O)N[C@@H](CCCNC(=N)N)C(=O)N[C@@H](CC(C)C)C(=O)N[C@@H](CC(C)C)C(=O)O)C(C)C", "note": "[KIAA1614_568 − 583]", "values": [{"measurement": "Kd", "setting": "USP8 Rhod domain", "value": "10 ± 2", "unit": "µM"}]}, {"compound": "CSCC[C@H](NC(=O)[C@H](CCCCN)NC(=O)[C@H](C)NC(=O)[C@H](CCC(=O)O)NC(=O)[C@H](Cc1c[nH]c2ccccc12)NC(=O)[C@H](CC(C)C)NC(=O)[C@H](C)NC(=O)[C@H](CC(C)C)NC(=O)CN)C(=O)N[C@@H](CCCCN)C(=O)N[C@@H](CCC(N)=O)C(=O)N[C@@H](CC(C)C)C(=O)N[C@@H](C)C(=O)N[C@@H](CCC(=O)O)C(=O)N[C@@H](CCCNC(=N)N)C(=O)N[C@@H](C)C(=O)O", "note": "[TET3_1705 − 1720]", "values": [{"measurement": "Kd", "setting": "USP8 Rhod domain", "value": "33 ± 9", "unit": "µM"}]}, {"compound": "ELSQRLARLR [CHMP1B]", "values": [{"measurement": "binding to USP8 MIT", "setting": "USP8 MIT domain [1]", "value": "USP8 MIT binding peptides"}]}, {"compound": "NEWGNRFKKLADMYG [CDH1_863 − 877, Cadherin-1 peptide]", "values": [{"measurement": "residues important for binding by SPOT array alanine scanning", "setting": "USP8 MIT domain [2]", "value": "corroborated the RFxxL motif and revealed a longer stretch is contributing to binding, with an upstream tryptophan being critical for the interaction"}, {"measurement": "Percentage (%) normalized to highest intensity and corrected for background", "setting": "USP8 MIT domain [3]", "value": 71, "unit": "%"}, {"measurement": "Percentage (%)", "setting": "USP8 MIT domain [3]", "value": 71, "unit": "%"}]}, {"compound": "PFEDFFGNRRGPR [DNAJB6_118 − 130, DnaJ homolog subfamily B member 6 peptide]", "values": [{"measurement": "residues important for binding by SPOT array alanine scanning", "setting": "USP8 MIT domain [2]", "value": "confirmed the importance of the aspartic acid and the phenylalanine of the predicted motif (DFx{2,3}R) and showed that the mutations of the flanking residues also reduced binding"}, {"measurement": "Percentage (%) normalized to highest intensity and corrected for background", "setting": "USP8 MIT domain [3]", "value": 100, "unit": "%"}, {"measurement": "Percentage (%)", "setting": "USP8 MIT domain [3]", "value": 100, "unit": "%"}]}, {"compound": "YVDLDAFLLEHGLPPS [DBP116 − 131]", "values": [{"measurement": "residues important for binding by SPOT array alanine scanning", "setting": "USP8 MIT domain [2]", "value": "revealed the importance of an extended DxDxFxxEHG stretch"}, {"measurement": "Percentage (%) normalized to highest intensity and corrected for background", "setting": "USP8 MIT domain [3]", "value": 67, "unit": "%"}, {"measurement": "Percentage (%)", "setting": "USP8 MIT domain [3]", "value": 67, "unit": "%"}, {"measurement": "NGS counts (%)", "setting": "USP8 MIT domain [4]; ProP-PD, human disorderome library, GST-tagged MIT bait, four rounds of selection, percent of NGS counts associated with each peptide, Fig. 1B", "value": 16.16, "unit": "%"}, {"measurement": "max_counts", "setting": "USP8 MIT domain [4]; Total NGS counts", "value": 858}, {"measurement": "Confidence", "setting": "USP8 MIT domain [4]; calculated based on four metrics: overlapping peptides, replicated peptides, motif match, peptide counts", "value": 2}, {"measurement": "Counts", "setting": "USP8 MIT domain [4]; fraction of NGS counts for a selection", "value": 0.06958}, {"measurement": "Promiscuity", "setting": "USP8 MIT domain [4]; number of baits selections where the peptide has been observed, calculated on the domain level", "value": 3}, {"measurement": "Replicates", "setting": "USP8 MIT domain [4]; number of screens against the bait protein in which the peptide has been found", "value": 3}, {"measurement": "Specificity", "setting": "USP8 MIT domain [4]; proportion for the current bait of the total NGS read counts of the peptide for all baits screened with this library", "value": 0.9006}]}]}
